“And” between values parts separate entries of the source, which are not always exact repeats. Equal entries are not always repeated. Where two headings read alike, the source gives them in different places.
Columns and labels:
[1] = test system: Euphorbia hirta (garden spurge, EPHHI); test: Field trial, % visual weed control; type: in vivo
Source text: (§1) Boom sizes varied from 2-3 m in width.

[2] = test system: Tridax procumbens L (tridax daisy, TRQPR); test: Field trial, % visual weed control; type: in vivo; details: 16DAA, 780 g ae/ha alone
Source text: as §1

[3] = test system: Amaranthus palmeri (Palmer pigweed, AMAPA); test: Field trial, % visual weed control; type: in vivo
Source text: as §1

[4] = test system: Spermacoce latifolia (broadleaf buttonweed, BOILF); test: Field trial, % visual weed control; type: in vivo
Source text: as §1

[5] = test system: Commelina benghalensis (hairy wandering Jew, COMBE); test: Field trial, % visual weed control; type: in vivo; details: 780 g ae/ha alone
Source text: as §1

[6] = test system: Ipomoea species (morningglory, IPOSS); test: Field trial, % visual weed control; type: in vivo; details: 8DAA, 800 g ae/ha alone
Source text: as §1

[7] = test system: Euphorbia heterophylla (wild poinsettia, EPHHL); test: Field trial, % visual weed control; type: in vivo; details: 28DAA, 585 g ae/ha alone
Source text: as §1

[8] = test system: Brachiaria decumbens (Surinam grass, BRADC); test: Field trial, % visual weed control; type: in vivo; details: 12DAA, 684 g ae/ha alone
Source text: as §1

[9] = test system: Ipomoea grandifolia (Corda-de-viola, IAQGR); test: Field trial, % visual weed control; type: in vivo; details: 17DAA, 780 g ae/ha alone
Source text: as §1

[10] = test system: Raphanus raphanistrim (wild radish, RAPRA); test: Field trial, % visual weed control; type: in vivo; details: 6DAA, 780 g ae/ha alone
Source text: as §1

[11] = test system: Glycine max (soybean, glyphosate tolerant, GLXMA); test: Field trial, % visual weed control; type: in vivo
Source text: as §1

[12] = test system: Jacquemontia tamnifolia (smallflower morningglory, IAQTA); test: Field trial, % visual weed control; type: in vivo; details: 7DAA, 1065 g ae/ha alone
Source text: as §1

[13] = test system: Sesbania exaltata (hemp sesbania, SEBEX); test: Field trial, % visual weed control; type: in vivo; details: 8DAA, 800 g ae/ha alone
Source text: as §1

[14] = test system: Conyza canadensis (horseweed, ERICA); details: field trial
Description: (§2) Field trials were conducted under normal field conditions in multiple states in the United States, including but not limited to Alabama, Mississipi, South Carolina and Tennessee; and in Brazil, including but not limited to the states of Goias, Mato Grosso, Parana, Rio Grande do Sul, and Sao Paulo. Trials were established as RCB (randomized complete block) design, with 3-4 replicates per treatment, and plot sizes varying from 2-3 meters (m) wide by 4-8 m long. Treatments were applied with small plot backpack sprayers, using pressurized carbon dioxide (CO2) as propellant. Pressure varied from 22-40 PSI, with spray tips typically of a Flat Fan type applying water diluent at 150 L/ha. Boom sizes varied from 2-3 m in width. Treatments were applied to soybean, cotton or fallow crop land. Weed sizes varied, but all treatments were applied as post-emergence treatments to weeds from 2 leaf to 2 tiller growth stages varying from 2-15 inches (in) in height. No additional adjuvant was mixed with the treatments applied in the field
(§3) The treated plots and control plots were rated blind at various intervals after application.
(§4) Colby's equation was used to determine the herbicidal effects expected from the mixtures (Colby, S. R. Calculation of the synergistic and antagonistic response of herbicide combinations. Weeds 1967 15, 20-22). A t-test (alpha=0.05) between Colby predictions and observed combinations was used to test for significant differences indicating synergy or antagonism.
(§5) The following equation was used to calculate the expected activity of mixtures containing two active ingredients, A and B:
(§6) Expected=A+B−(A×B/100) • A=observed efficacy of active ingredient A at the same concentration as used in the mixture; • B=observed efficacy of active ingredient B at the same concentration as used in the mixture.

[15] = test system: Ipomoea quamoclit (cypress vine morningglory, IPOQU); details: 7DAA, field trial, 1065 g ae/ha alone
Description: as §2, §3, §4, §5, §6

[16] = test system: Conyza bonariensis (hairy fleabane, ERIBO); details: field trial
Description: as §2, §3, §4, §5, §6

[17] = test system: Elymus repens (quackgrass, AGRRE); test: Greenhouse trial, % visual weed control; type: in vivo; details: 14DAA, 200 g ae/ha alone
Description: (§7) Greenhouse trials were conducted under controlled environment greenhouse conditions, with plants grown in pots with Metromix soil and bottom watered. Treatments were applied with 3 replicates per treatment, using a track sprayer with 2 flat fan nozzles at 40 pounds per square inch (PSI). Water was used as the diluent at 140 liters per hectare (L/ha), with weeds being 2-4 leaf stage and approximately 3 inches in height at treatment.

[18] = test system: Abutilon theophrasti (velvetleaf, ABUTH); test: Greenhouse trial, % visual weed control; type: in vivo; details: 14DAA
Description: as §7

[19] = test system: Ambrosia artemisiifolia (common ragweed, AMBEL); test: Greenhouse trial, % visual weed control; type: in vivo; details: 14DAA, 100 g ae/ha alone
Description: as §7

[20] = test system: Chenopodium album (common lambsquarter, CHEAL); test: Greenhouse trial, % visual weed control; type: in vivo; details: 14DAA
Description: as §7

**Q.** What does the source list for `O=C(O)COc1ccc(Cl)cc1Cl` [2,4-D-Choline, 2-hydroxy-N,N,N-trimethylethanaminium 2-(2,4-dichlorophenoxyl)acetate]?
**A.** Mean % Weed Control ([1]; 7DAA, 780 g ae/ha alone): 13.8%; Mean % Weed Control ([1]; 18DAA, 780 g ae/ha alone): 36.3%; Mean % Weed Control ([1]; 21DAA, 780 g ae/ha alone): 0.0%; Mean % Weed Control ([1]; 24DAA, 480 g ae/ha alone): 21.7%; Mean % Weed Control [2]: 12.5%; Mean % Weed Control ([3]; 7DAA, 800 g ae/ha alone): 47.5%; Mean % Weed Control ([3]; 13DAA, 1065 g ae/ha alone): 45.0%; Mean % Weed Control ([3]; 21DAA, 1065 g ae/ha alone): 38.8%; Mean % Weed Control ([4]; 18DAA, 780 g ae/ha alone): 37.5%; Mean % Weed Control ([4]; 21DAA, 780 g ae/ha alone): 63.8%; Mean % Weed Control ([4]; 24DAA, 480 g ae/ha alone): 30.0%; Mean % Weed Control ([4]; 27DAA, 780 g ae/ha alone): 67.5%; Mean % Weed Control ([4]; 28DAA, 780 g ae/ha alone): 68.8%; Mean % Weed Control ([5]; 12DAA): 70.0%; Mean % Weed Control ([5]; 15DAA): 68.8% and 66.3%; Mean % Weed Control ([5]; 18DAA): 43.8%; Mean % Weed Control ([5]; 27DAA): 66.3%; Mean % Weed Control ([5]; 28DAA): 67.5%; Mean % Weed Control ([5]; 35DAA): 70.0%; Mean % Weed Control [6]: 80.0%; Mean % Weed Control [7]: 65.0%; Mean % Weed Control [8]: 7.5%; Mean % Weed Control [9]: 98.0%; Mean % Weed Control [10]: 80.0%; Mean % Weed Control ([11]; 7DAA, 960 g ae/ha alone): 50.0%; Mean % Weed Control ([11]; 16DAA, 456 g ae/ha alone): 48.8%; Mean % Weed Control ([11]; 28DAA, 480 g ae/ha alone): 58.8%; Mean % Weed Control ([11]; 28DAA, 960 g ae/ha alone): 67.5%; Mean % Weed Control ([11]; 30DAA, 456 g ae/ha alone): 60.0%; Mean % Weed Control [12]: 80.0%; Mean % Weed Control [13]: 32.5%; Mean % Weed Control ([14]; 10DAA, 360 g ae/ha alone): 11.7%; Mean % Weed Control ([14]; 10DAA, 720 g ae/ha alone): 15%; Mean % Weed Control ([14]; 14DAA, 800 g ae/ha alone): 58.8%; Mean % Weed Control ([14]; 15DAA, 360 g ae/ha alone): 16.7%; Mean % Weed Control ([14]; 15DAA, 720 g ae/ha alone): 21.7%; Mean % Weed Control ([14]; 21DAA, 800 g ae/ha alone): 66.3%; Mean % Weed Control ([14]; 28DAA, 800 g ae/ha alone): 50.0%; Mean % Weed Control ([14]; 31DAA, 360 g ae/ha alone): 25%; Mean % Weed Control ([14]; 31DAA, 720 g ae/ha alone): 40%; Mean % Weed Control [15]: 81.3%; Mean % Weed Control ([16]; 6DAA, 720 g ae/ha alone): 5.0%; Mean % Weed Control ([16]; 6DAA, 1080 g ae/ha alone): 5.0%; Mean % Weed Control ([16]; 7DAA, 780 g ae/ha alone): 5.0% and 12.5%; Mean % Weed Control ([16]; 10DAA, 780 g ae/ha alone): 46.3%; Mean % Weed Control ([16]; 20DAA, 780 g ae/ha alone): 34.5%; Mean % Weed Control ([16]; 21DAA, 780 g ae/ha alone): 38.8%; Mean % Weed Control ([16]; 31DAA, 780 g ae/ha alone): 53.8%; Mean % Weed Control ([16]; 36DAA, 780 g ae/ha alone): 27.5% and 17.5%; Mean % Weed Control [17]: 0.0%; Mean % Weed Control ([18]; 100 g ae/ha alone): 28.3%; Mean % Weed Control ([18]; 200 g ae/ha alone): 46.7%; Mean % Weed Control ([18]; 400 g ae/ha alone): 73.3%; Mean % Weed Control ([18]; 800 g ae/ha alone): 88.3%; Mean % Weed Control [19]: 25.0%; Mean % Weed Control ([20]; 100 g ae/ha alone): 5.0%; Mean % Weed Control ([20]; 200 g ae/ha alone): 61.7%; Mean % Weed Control ([20]; 400 g ae/ha alone): 75.0%

Source: patent publication US20150173371A1 (Dow AgroSciences LLC, priority 2013, published 2015)
